The values below are quoted from earlier work in US6583130B1, “C13-substituted estra-1,3,5,(10)-trien-3-yl sulfamates, methods of preparing same, and pharmaceutical compositions containing these compounds” (Schering AG, priority 1999, dated 2003).

In one data set the test system is uterine growth. As to conditions: ovariectomized rats; Purohit et al. 1998.
The target of the next data set is T1, sulfatase (Homo sapiens, UniProt P08842).
T1 sequence (P08842 22-583): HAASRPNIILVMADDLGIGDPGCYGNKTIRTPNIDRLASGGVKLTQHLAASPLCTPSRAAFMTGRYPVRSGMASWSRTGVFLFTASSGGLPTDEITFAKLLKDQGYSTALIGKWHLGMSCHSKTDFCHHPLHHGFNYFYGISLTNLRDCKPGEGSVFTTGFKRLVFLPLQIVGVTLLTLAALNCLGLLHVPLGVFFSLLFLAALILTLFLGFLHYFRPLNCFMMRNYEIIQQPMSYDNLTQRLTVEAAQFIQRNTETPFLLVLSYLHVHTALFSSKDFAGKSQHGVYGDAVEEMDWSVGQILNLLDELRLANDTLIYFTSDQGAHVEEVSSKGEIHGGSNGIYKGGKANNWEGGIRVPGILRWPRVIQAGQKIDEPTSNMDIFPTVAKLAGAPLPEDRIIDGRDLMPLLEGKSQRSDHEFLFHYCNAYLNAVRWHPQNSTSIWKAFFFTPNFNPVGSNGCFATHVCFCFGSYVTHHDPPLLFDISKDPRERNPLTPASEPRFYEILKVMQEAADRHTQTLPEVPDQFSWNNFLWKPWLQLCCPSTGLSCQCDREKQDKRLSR
As to conditions: as described in the cited literature.

The test system of another data set is estrogenic effect. As to conditions: as described in the cited literature (Elger et al. 1995; WO 97/14712).

As for `COc1cc2c(cc1OS(N)(=O)=O)CC[C@@H]1[C@@H]2CC[C@]2(C)C(=O)CC[C@@H]12` [2-methoxyestrone 3-O-sulfamate], the “estrogenic effect on uterine growth” value in the data set with uterine growth is listed as “does not exhibit any estrogenic effect”. Also, the sulfatase inhibition result at sulfatase is on record as “potent sulfatase inhibitor”.
Turning to `CC(=O)NS(=O)(=O)Oc1ccc2c(c1)CC[C@@H]1[C@@H]2CC[C@]2(C)C(=O)CC[C@@H]12` [N-acetylestrone 3-O-sulfamate], the estrogenic effect result in the data set with estrogenic effect is reported as “strong estrogenic effect”. Also, the sulfatase inhibition result at sulfatase is “sulfatase inhibitor”.
In the case of `C[C@]12CC[C@@H]3c4ccc(OS(N)(=O)=O)cc4CC[C@H]3[C@@H]1CCC2=O` [estrone 3-O-sulfamate], the estrogenic effect result in the data set on estrogenic effect was “strong estrogenic effect”. Further, at sulfatase, the sulfatase inhibition entry is on record as “strong sulfatase inhibitor”.
